US9708639B2, “Method for quantifying amino acids with pyrophosphate” (TOYAMA PREFECTURE, priority 2012, dated 2017)

Legend:
Thermus-derived MetRS = biological target: T1, Thermus-derived MetRS (Thermus thermophilus, UniProt P23395); test: Qualitative test of AARS substrate specificity (AARS activity at 70° C.); assay type: biochemical, Thermus thermophilus HB8 strain; design: key: +: Activity was detected; −: Activity was not detected; details: amino acids 200 μM, hydroxylamine 400 mM
T1 construct: host or cells: Escherichia coli BL21 (DE3)
T1 sequence (P23395 whole entry): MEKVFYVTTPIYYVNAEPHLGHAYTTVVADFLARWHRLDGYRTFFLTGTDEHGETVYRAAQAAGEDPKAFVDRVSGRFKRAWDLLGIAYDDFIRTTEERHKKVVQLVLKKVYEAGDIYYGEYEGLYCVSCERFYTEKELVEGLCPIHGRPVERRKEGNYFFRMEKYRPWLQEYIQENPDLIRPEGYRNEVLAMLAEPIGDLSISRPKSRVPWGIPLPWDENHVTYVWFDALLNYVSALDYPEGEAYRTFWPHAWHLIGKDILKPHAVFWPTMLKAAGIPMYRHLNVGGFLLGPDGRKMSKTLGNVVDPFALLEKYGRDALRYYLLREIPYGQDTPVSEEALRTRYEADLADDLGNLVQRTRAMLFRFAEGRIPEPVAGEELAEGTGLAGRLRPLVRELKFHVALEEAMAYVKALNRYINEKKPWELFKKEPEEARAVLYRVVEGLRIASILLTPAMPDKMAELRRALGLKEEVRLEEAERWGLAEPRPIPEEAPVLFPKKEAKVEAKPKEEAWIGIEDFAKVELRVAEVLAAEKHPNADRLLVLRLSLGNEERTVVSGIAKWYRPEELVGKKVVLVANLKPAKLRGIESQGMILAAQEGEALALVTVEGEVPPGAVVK
Experimental: (§1) A test sample containing an amino acid as the measurement subject and a reaction mixture for quantifying amino acid having the following composition were mixed. The mixture was left standing at 70° C. to allow the AARS reaction to advance. The mixture in a volume of 600 μl, 60 μl of a 1 M 2-mercaptoethanol solution, and 240 μl of the color development solution mentioned below were mixed, then the mixture was left standing at room temperature for 20 minutes, and the absorbance was measured at 580 nm in a cuvette having an optical path length of 1 cm.
(§2) Reaction mixture for quantifying amino acid: 20 mM HEPES-NaOH (pH 8.0), 5 mM MgCl2, 0.5 mM ATP, and AARS (concentrations are final concentrations obtained after mixing with test sample)
(§3) Color developing solution: A solution obtained by mixing water and concentrated sulfuric acid at a ratio of 6:1 and dissolving (NH4)6Mo7O24.4H2O in the mixture at a concentration of 0.025 g/ml
(§4) Presence or absence of pyrophosphate generation was verified for the Thermotoga-derived CysRS, HisRS, LysRS, ProRS, SerRS, TrpRS, and TyrRS by using the AARS activity measurement method described in 9. and standard solutions of the various amino acids as test samples. AARSs were added to the reaction mixture at final concentrations of 0.3 (8 mU/ml), 0.1, 0.2 (3 mU/ml), 0.2, 0.1 (1 mU/ml), 0.1, 0.2 (20 mU/ml) mg/ml, respectively. The reaction mixtures were prepared so that the final concentration of Tyr was 1 mM, and the final concentrations of the other amino acids were 5 mM. As for the hydroxylamine concentration, it was added at a final concentration of 1000 mM for all the cases. Further, presence or absence of pyrophosphate production was also verified for the Thermus-derived MetRS and TyrRS by using the AARS activity measurement method described in 10. and standard solutions of the various amino acids as test samples. The reaction mixtures were prepared so that the final concentrations of the amino acids were 200 μM. Hydroxylamine was added at a final concentration of 400 mM.
(§5) Detection or no detection of the activity in the reaction mixtures containing a combination of each AARS and amino acid are shown in Table 2. The symbol + indicates detection of the activity, and − indicates no detection of the activity.

Thermus-derived TyrRS = biological target: T2, Thermus-derived TyrRS (Thermus thermophilus, UniProt P83453); test: as above; assay type: biochemical, Thermus thermophilus HB8 strain; design: key: +: Activity was detected; −: Activity was not detected; details: amino acids 200 μM, hydroxylamine 400 mM
T2 construct: host or cells: Escherichia coli BL21 (DE3)
T2 sequence (P83453 whole entry): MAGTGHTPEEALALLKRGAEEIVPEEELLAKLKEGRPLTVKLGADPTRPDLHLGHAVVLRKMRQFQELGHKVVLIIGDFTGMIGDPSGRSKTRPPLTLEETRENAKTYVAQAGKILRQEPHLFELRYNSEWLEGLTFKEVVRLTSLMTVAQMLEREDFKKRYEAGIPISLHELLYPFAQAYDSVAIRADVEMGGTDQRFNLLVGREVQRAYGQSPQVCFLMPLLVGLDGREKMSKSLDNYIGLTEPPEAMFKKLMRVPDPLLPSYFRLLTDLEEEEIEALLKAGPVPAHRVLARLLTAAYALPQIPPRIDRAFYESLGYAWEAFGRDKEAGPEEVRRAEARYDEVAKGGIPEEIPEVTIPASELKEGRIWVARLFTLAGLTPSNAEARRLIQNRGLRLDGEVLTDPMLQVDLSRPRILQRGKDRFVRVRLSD
Experimental: as §1, §2, §3, §4, §5

Thermotoga-derived LysRS = biological target: T3, Thermotoga-derived LysRS (Thermotoga maritima, UniProt Q9X231); test: Calibration curve for amino acid by coupled PPDK and LDH; assay type: biochemical, Thermotoga maritima MSB8 strain; details: Lys 0 to 200 μM; hydroxylamine 1000 mM; LysRS 0.1 mg/ml (10 mU/ml); 30° C.
T3 construct: His tag (C); made in house; host or cells: Escherichia coli BL21 (DE3)
T3 sequence (Q9X231 1-502): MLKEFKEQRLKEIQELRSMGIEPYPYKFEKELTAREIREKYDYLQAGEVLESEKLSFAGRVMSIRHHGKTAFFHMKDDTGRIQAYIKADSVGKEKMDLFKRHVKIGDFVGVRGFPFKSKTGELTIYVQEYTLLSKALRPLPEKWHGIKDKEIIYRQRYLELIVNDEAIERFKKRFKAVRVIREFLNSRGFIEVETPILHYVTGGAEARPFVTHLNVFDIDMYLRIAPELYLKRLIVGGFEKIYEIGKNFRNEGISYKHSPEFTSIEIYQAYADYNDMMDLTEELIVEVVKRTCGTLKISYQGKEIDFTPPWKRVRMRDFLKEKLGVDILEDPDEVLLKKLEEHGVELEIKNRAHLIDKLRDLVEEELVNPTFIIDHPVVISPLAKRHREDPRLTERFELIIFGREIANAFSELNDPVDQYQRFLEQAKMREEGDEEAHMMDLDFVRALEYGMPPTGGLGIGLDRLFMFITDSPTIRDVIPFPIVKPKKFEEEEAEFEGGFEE
Experimental: A test sample containing an amino acid as the measurement subject and a reaction mixture for quantifying amino acid having the following composition were mixed. The mixture was left standing at 30° C. to allow the AARS, PPDK, and LDH reactions to advance, and decrease of the absorbance at 340 nm was measured. The volume of the mixture was 200 μl, and after the reaction mixture was put into the wells of a 96-well microplate, the absorbance was measured with a microplate reader.
Reaction mixture for quantifying amino acid: 20 mM Tris-HCl (pH 7.0), 10 mM MgCl2, 10 mM NH4Cl, 0.3 mM PEP, 0.3 mM NADH, 0.2 mM ATP, 0.2 mM AMP, 70 mU/ml PPDK, 50 U/ml LDH, and AARS (concentrations are final concentrations obtained after mixing with test sample)
Calibration curves were prepared by using the AARS activity measurement method described in 8. and standard Cys, Lys, Ser, and Tyr solutions as test samples. The concentrations of the aforementioned amino acids were set so that the final concentrations thereof are in the range of 0 to 200 μM. The hydroxylamine concentration was 200 mM for the samples used for the Tyr calibration curve, or 1000 mM for the samples used for the Cys, Lys, and Ser calibration curves. The Thermotoga-derived CysRS, LysRS, SerRS, TyrRS, and the Thermus-derived TyrRS were added to the reaction mixture at final concentrations of 0.2 (7 mU/ml), 0.1 (10 mU/ml), 0.2 (8 mU/ml), 0.4 (40 mU/ml), and 0.1 mg/ml, respectively.
Calibration curves could be similarly prepared when adding pyrophosphate instead of the aforementioned amino acids, but the inclinations of the Lys, Ser, and Tyr calibration curves (absorbance change per mM of substrate) were 80% or more of the inclination of the pyrophosphate calibration curve. […] The inclination of the Cys calibration curve was slightly smaller than those of the other calibration curves, and it is considered that this is because a part of cysteine in the test sample was converted into cystine by air oxidation, and the real concentration of cysteine was reduced.

Row | Compound | Detection of the activity (pyrophosphate production), MetRS (Thermus) (Thermus-derived MetRS) | Detection of the activity (pyrophosphate production), TyrRS (Thermus) (Thermus-derived TyrRS) | inclination of calibration curve relative to inclination of the pyrophosphate calibration curve (Thermotoga-derived LysRS)
1 | N[C@@H](CCC(=O)O)C(=O)O [Glu, L-glutamic acid] | − | − | 
2 | N[C@@H](Cc1ccc(O)cc1)C(=O)O [Tyr, L-tyrosine] | − | + | 
3 | NC(=O)C[C@H](N)C(=O)O [Asn, L-asparagine] | − | − | 
4 | CSCC[C@H](N)C(=O)O [Met, L-methionine] | + | − | 
5 | CC(C)[C@H](N)C(=O)O [Val, L-valine] | − | − | 
6 | NCCCC[C@H](N)C(=O)O [Lys, L-lysine] | − | − | ≥ 80%
7 | N[C@@H](Cc1c[nH]cn1)C(=O)O [His, L-histidine] | − | − | 
8 | CC(C)C[C@H](N)C(=O)O [Leu, L-leucine] | − | − | 
9 | N[C@@H](CO)C(=O)O [Ser, L-serine] | − | − | 
10 | NCC(=O)O [Gly, glycine] | − | − | 
11 | C[C@@H](O)[C@H](N)C(=O)O [Thr, L-threonine] | − | − | 
12 | N[C@@H](CC(=O)O)C(=O)O [Asp, L-aspartic acid] | − | − | 
13 | N[C@@H](CS)C(=O)O [Cys, L-cysteine] | − | − | 
14 | N[C@@H](Cc1ccccc1)C(=O)O [Phe, L-phenylalanine] | − | − | 
15 | NC(=O)CC[C@H](N)C(=O)O [Gln, L-glutamine] | − | − | 
16 | O=C(O)[C@@H]1CCCN1 [Pro, L-proline] | − | − | 
17 | C[C@H](N)C(=O)O [Ala, L-alanine] | − | − | 
18 | N[C@@H](Cc1c[nH]c2ccccc12)C(=O)O [Trp, L-tryptophan] | − | − | 
19 | N=C(N)NCCC[C@H](N)C(=O)O [Arg, L-arginine] | − | − | 
20 | CC[C@H](C)[C@H](N)C(=O)O [Ile, L-isoleucine] | − | − | 
